The test system of this assay is CD8F1 mice, subcutaneous mammary adenocarcinoma, T/C%. The experiment in a line: NCI In Vivo Anticancer Drug Screen. Data for tumor model Mammary Adenocarcinoma CD8F1 (subcutaneous) in CD8F1. The following applies: higher = larger tumour. An outline of the steps:
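Ratio of treated to vehicle-control outcome, based on either survival or tumor size, in mice bearing transplantable tumors given the test compound.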

Setting [1] is: endpoint: median tumor weight change, dose: 1000.0 mg/kg/injection, schedule: Q01DX001 (ip), vehicle: saline with Tween-80.
Setting [2] is: endpoint: median tumor weight (est.), dose: 12.5 mg/kg/injection, schedule: Q07DX005 (ip), vehicle: Klucel (hydroxypropylcellulose) (HPC).
Setting [3] is: endpoint: median tumor weight (est.), dose: 25.0 mg/kg/injection, schedule: Q07DX005 (ip), vehicle: Klucel (hydroxypropylcellulose) (HPC).
[4] abbreviates: endpoint: median tumor weight (est.), dose: 50.0 mg/kg/injection, schedule: Q07DX005 (ip), vehicle: Klucel (hydroxypropylcellulose) (HPC).
The mark [5] stands for this setting: endpoint: median tumor weight (est.), dose: 100.0 mg/kg/injection, schedule: Q07DX005 (ip), vehicle: Klucel (hydroxypropylcellulose) (HPC).
[6] abbreviates: endpoint: median tumor weight (est.), dose: 200.0 mg/kg/injection, schedule: Q07DX005 (ip), vehicle: Klucel (hydroxypropylcellulose) (HPC).
Where [7] appears, read: endpoint: median tumor weight (est.), dose: 400.0 mg/kg/injection, schedule: Q07DX005 (ip), vehicle: Klucel (hydroxypropylcellulose) (HPC).
Setting [8] is: endpoint: median tumor weight (est.), dose: 100.0 mg/kg/injection, schedule: Q07DX005 (ip), vehicle: saline.
[9] abbreviates: endpoint: median tumor weight (est.), dose: 3.12 mg/kg/injection, schedule: Q07DX005 (ip), vehicle: Klucel (hydroxypropylcellulose) (HPC).

Several values for one entry are separate records, joined by “and”; a condition that tells them apart may be missing. Equal entries are not always repeated. Inconclusive results are not listed.

As to `O=c1[nH]c(=O)n(C2CC(O)C(CO)O2)cc1C(F)(F)F` (configuration not stated), the T/C (endpoint: mean tumor weight, dose: 125.0 mg/kg/injection, schedule: Q07DX005 (ip), vehicle: saline) is 65 % of control; the T/C (endpoint: mean tumor weight, dose: 250.0 mg/kg/injection, schedule: Q07DX005 (ip), vehicle: saline) was 84 % of control; the T/C (endpoint: mean tumor weight, dose: 250.0 mg/kg/injection, schedule: Q07DX008 (ip), vehicle: saline) was 184 % of control; the T/C (endpoint: mean tumor weight, dose: 500.0 mg/kg/injection, schedule: Q07DX005 (ip), vehicle: saline) is 59 % of control; the T/C (endpoint: mean tumor weight, dose: 500.0 mg/kg/injection, schedule: Q07DX008 (ip), vehicle: saline) is 55 % of control; the T/C (endpoint: mean tumor weight, dose: 750.0 mg/kg/injection, schedule: Q07DX008 (ip), vehicle: saline) was 68 % of control. In addition, the T/C is, setting by setting: (endpoint: median tumor weight (est.), dose: 12.5 mg/kg/injection, schedule: Q07DX005 (ip), vehicle: suspension in saline) 28 % of control; (endpoint: median tumor weight (est.), dose: 250.0 mg/kg/injection, schedule: Q07DX005 (ip), vehicle: suspension in saline) 100 % of control; (endpoint: median tumor weight (est.), dose: 500.0 mg/kg/injection, schedule: Q07DX005 (ip), vehicle: suspension in saline) 26 % of control.

As for `COCCCNC1=C(C#N)C(=O)NC(c2cccc([N+](=O)[O-])c2)S1` (configuration not stated), the T/C is 95 % of control and 110 % of control under setting [1]; 79 % of control (endpoint: median tumor weight change, dose: 2000.0 mg/kg/injection, schedule: Q01DX001 (ip), vehicle: saline with Tween-80).

Consider `Cc1c(N)nc(C(CC(N)=O)NCC(N)C(N)=O)nc1C(=O)NC(C(=O)NC(C)C(O)CC(=O)NC(C(=O)NC(OC1OC(C)C(N)C(O)C1O)C(O)c1nc(-c2nc(C(=O)NCCCC(N)CC(=O)NCCCNCCCCN)cs2)cs1)C(C)O)C(OC1OC(CO)C(O)C(O)C1OC1OC(CO)C(O)C(OC(N)=O)C1O)c1cnc[nH]1` (configuration not stated), for which the T/C reads like this: (endpoint: median tumor weight (est.), dose: 2.0 mg/kg/injection, schedule: Q07DX005 (ip), vehicle: saline) 15 % of control; (endpoint: median tumor weight (est.), dose: 4.0 mg/kg/injection, schedule: Q07DX005 (ip), vehicle: saline) 20 % of control; (endpoint: median tumor weight (est.), dose: 8.0 mg/kg/injection, schedule: Q07DX005 (ip), vehicle: saline) 10 % of control.

For the molecule `C1OC1CO[C@@H]1CO[C@H]2[C@@H]1OC[C@H]2OCC1CO1` (some centres not stated), the T/C was 44 % of control under setting [2]; 53 % of control under setting [3]; 108 % of control (endpoint: median tumor weight (est.), dose: 25.0 mg/kg/injection, schedule: Q07DX005 (ip), vehicle: suspension in saline); 84 % of control under setting [4]; 64 % of control (endpoint: median tumor weight (est.), dose: 50.0 mg/kg/injection, schedule: Q07DX005 (ip), vehicle: suspension in saline); 108 % of control under setting [5]. Moreover, the T/C runs as follows: (endpoint: median tumor weight (est.), dose: 100.0 mg/kg/injection, schedule: Q07DX005 (ip), vehicle: suspension in saline) 48 % of control; under setting [6], 57 % of control; (endpoint: median tumor weight (est.), dose: 200.0 mg/kg/injection, schedule: Q07DX005 (ip), vehicle: suspension in saline) 51 % of control; under setting [7], 16 % of control; (endpoint: median tumor weight (est.), dose: 400.0 mg/kg/injection, schedule: Q07DX005 (ip), vehicle: suspension in saline) 9 % of control.

As for `Cc1oc2c(C)c3oc(=O)cc(C)c3cc2c1CCl`, the T/C (endpoint: median tumor weight change, dose: 15.62 mg/kg/injection, schedule: Q01DX001 (ip), vehicle: saline with Tween-80) is 60 % of control; the T/C (endpoint: median tumor weight change, dose: 31.25 mg/kg/injection, schedule: Q01DX001 (ip), vehicle: saline with Tween-80) was 68 % of control; the T/C under setting [1] is 42 % of control.

As for `COc1cccc2c1C(=O)c1c(O)c3c(c(O)c1C2=O)C[C@@](O)(C(O)CO)C[C@@H]3OC1CC(N)C(O)C(C)O1` (some centres not stated), the T/C was 33 % of control (endpoint: mean tumor weight, dose: 6.0 mg/kg/injection, schedule: Q07DX006 (ip), vehicle: saline); 45 % of control (endpoint: mean tumor weight, dose: 12.0 mg/kg/injection, schedule: Q07DX006 (ip), vehicle: saline); 77 % of control (endpoint: median tumor weight (est.), dose: 3.0 mg/kg/injection, schedule: Q07DX005 (ip), vehicle: saline); 48 % of control (endpoint: median tumor weight (est.), dose: 6.0 mg/kg/injection, schedule: Q07DX005 (ip), vehicle: saline); 26 % of control (endpoint: median tumor weight (est.), dose: 12.0 mg/kg/injection, schedule: Q07DX005 (ip), vehicle: saline).

For `C(CSC1=NCCN1)CSC1=NCCN1`, the T/C by setting is: (endpoint: median tumor weight (est.), dose: 12.5 mg/kg/injection, schedule: Q07DX005 (ip), vehicle: saline) 98 % of control; (endpoint: median tumor weight (est.), dose: 25.0 mg/kg/injection, schedule: Q07DX005 (ip), vehicle: saline) 103 % of control; (endpoint: median tumor weight (est.), dose: 50.0 mg/kg/injection, schedule: Q07DX005 (ip), vehicle: saline) 76 % of control; under setting [8], 102 % of control; (endpoint: median tumor weight (est.), dose: 200.0 mg/kg/injection, schedule: Q07DX005 (ip), vehicle: saline) 69 % of control.

For `[Cl][Hg][Cl]`, the T/C by setting is: (endpoint: median tumor weight change, dose: 1.56 mg/kg/injection, schedule: Q01DX001 (ip), vehicle: saline) 87 % of control; (endpoint: median tumor weight change, dose: 3.12 mg/kg/injection, schedule: Q01DX001 (ip), vehicle: saline) 71 % of control.

Regarding `CC(=O)N(C)O`, the T/C (endpoint: median tumor weight change, dose: 125.0 mg/kg/injection, schedule: Q01DX001 (ip), vehicle: saline with Tween-80) was 80 % of control; the T/C (endpoint: median tumor weight change, dose: 250.0 mg/kg/injection, schedule: Q01DX001 (ip), vehicle: saline with Tween-80) was 63 % of control; the T/C (endpoint: median tumor weight change, dose: 500.0 mg/kg/injection, schedule: Q01DX001 (ip), vehicle: saline with Tween-80) was 50 % of control.

For the molecule `CN(C)CCCNc1c2ccccc2nc2cccc([N+](=O)[O-])c12`, the T/C by setting is: (endpoint: median tumor weight (est.), dose: 0.06 mg/kg/injection, schedule: Q07DX004 (ip), vehicle: saline) 90 % of control; (endpoint: median tumor weight (est.), dose: 15.0 micrograms/kg/injection, schedule: Q07DX005 (ip), vehicle: saline) 86 % of control.

In the case of `N#Cc1nc(C#N)c(Sc2ccccc2)c(Sc2ccccc2)c1Sc1ccccc1`, the T/C (endpoint: median tumor weight (est.), dose: 6.25 mg/kg/injection, schedule: Q07DX005 (ip), vehicle: saline with Tween-80) is 165 % of control and the T/C (endpoint: median tumor weight (est.), dose: 12.5 mg/kg/injection, schedule: Q07DX005 (ip), vehicle: saline with Tween-80) was 113 % of control.

As for `COc1nc(C(Cl)(Cl)Cl)c(Cl)c(OC)c1Cl`, the T/C is 32 % of control (endpoint: median tumor weight change, dose: 60.0 mg/kg/injection, schedule: Q01DX005 (ip), vehicle: Klucel (hydroxypropylcellulose) (HPC)); 174 % of control (endpoint: median tumor weight change, dose: 62.5 mg/kg/injection, schedule: Q01DX001 (ip), vehicle: Klucel (hydroxypropylcellulose) (HPC)); 81 % of control and 95 % of control (endpoint: median tumor weight change, dose: 125.0 mg/kg/injection, schedule: Q01DX001 (ip), vehicle: Klucel (hydroxypropylcellulose) (HPC)); -15 % of control (endpoint: median tumor weight change, dose: 200.0 mg/kg/injection, schedule: Q01DX005 (ip), vehicle: Klucel (hydroxypropylcellulose) (HPC)).

Regarding `CC(=O)N(C)c1ccc(Nc2cc(C)[nH]c3ccc4ncnc4c23)cc1`, the T/C (endpoint: median tumor weight change, dose: 125.0 mg/kg/injection, schedule: Q01DX001 (ip), vehicle: saline) was 34 % of control and 46 % of control.

For `C[n+]1cccc(NC(=O)c2ccc(NC(=O)C34CCC(C(=O)Nc5ccc(C(=O)Nc6ccc[n+](C)c6)cc5)(CC3)CC4)cc2)c1`, the T/C (endpoint: median tumor weight change, dose: 50.0 mg/kg/injection, schedule: Q01DX001 (ip), vehicle: saline with Tween-80) was 57 % of control and 78 % of control (2×); the T/C (endpoint: median tumor weight change, dose: 200.0 mg/kg/injection, schedule: Q01DX001 (ip), vehicle: saline with Tween-80) was -66 % of control.

`OCC1OC(n2cnc3c(NO)ncnc32)C(O)C1O` (configuration not stated): the T/C is 104 % of control under setting [2]; 66 % of control under setting [3]; 85 % of control under setting [4]; 91 % of control under setting [5]; 69 % of control under setting [6]; 113 % of control under setting [7].

On to `NC(CCl)=NCC12CC3CC(CC(C3)C1)C2`, for which the T/C reads like this: under setting [9], 114 % of control; under setting [2], 104 % of control and 119 % of control; under setting [3], 90 % of control; under setting [4], 39 % of control and 51 % of control.

On to `CNC(=O)OCc1c(COC(=O)NC)c(-c2ccc(F)cc2)n2c1CCC2`, for which the T/C is 49 % of control under setting [9]; 63 % of control (endpoint: median tumor weight (est.), dose: 6.25 mg/kg/injection, schedule: Q07DX005 (ip), vehicle: Klucel (hydroxypropylcellulose) (HPC)); 84 % of control under setting [2]; 48 % of control under setting [3]; 39 % of control under setting [4].

On to `CN(C)C=O`, for which the T/C is, setting by setting: under setting [8], 78 % of control; (endpoint: median tumor weight (est.), dose: 400.0 mg/kg/injection, schedule: Q07DX005 (ip), vehicle: saline) 105 % of control; (endpoint: median tumor weight (est.), dose: 800.0 mg/kg/injection, schedule: Q07DX005 (ip), vehicle: saline) 96 % of control.

The values are drawn from PubChem BioAssay AID220 (DTP/NCI, 2004).
